Test results from the PolyMetriX glass transition set.

| SMILES | glass transition temperature [°C] |
| --- | --- |
| */C(C)=C(/*)CCCCCCC (repeat unit) | 160.00 |
| *=Nc1ccc(/N=C(\c2ccccc2)c2ccc(C(=*)c3ccccc3)cc2)cc1 (repeat unit) | 179.00 |
| *=Nc1ccc(Cc2ccc(NC(=*)C)cc2)cc1 (repeat unit) | 142.00 |
| *=Nc1ccc(Cc2ccc(NC(=*)CCC)cc2)cc1 (repeat unit) | 110.00 |
| *CC(*)(C)C(=O)OCCCCCCOc1ccc(C(=O)Oc2ccc(OC)cc2)cc1OC (repeat unit) | 49.00 |
| *CC(*)(C)C(=O)OCCCCCCOc1ccc(C(=O)Oc2ccc(OCCCC)cc2)cc1 (repeat unit) | 49.00 |
| *CC(*)(C)C(=O)OCCCCCCOc1ccc(C(=O)Oc2ccc3ccc(=O)oc3c2)cc1 (repeat unit) | 102.00 |
| *CC(*)(C)C(=O)OCCCCCCOc1ccc(OC(=O)c2ccc(OC)c(Br)c2)cc1 (repeat unit) | 51.00 |
| *CC(*)(C)C(=O)OCCCCCCOc1ccc(OC(=O)c2ccc(OC)cc2)cc1 (repeat unit) | 38.00 |
| *CC(*)(C)C(=O)OCCCCCCOc1cccc(C(=O)Oc2ccc(C#N)cc2)c1 (repeat unit) | 38.00 |
| *CC(*)(C)C(=O)OCCCCCCc1ccc(/C(C)=C/c2ccc(OC)cc2)cc1 (repeat unit) | 31.00 |
| *CC(*)(C)C(=O)OCCCCCOc1ccc(OC(=O)c2ccc(OC)cc2)cc1 (repeat unit) | 38.00 |
| *CC(*)(C)C(=O)OCCCCCn1c2ccccc2c2ccccc21 (repeat unit) | 91.00 |
| *CC(*)(C)C(=O)OCCCCOc1ccc(/N=N/c2ccc(C#N)cc2)cc1 (repeat unit) | 80.00 |
| *CC(*)(C)C(=O)OCCCCOc1ccc(OC(=O)c2ccc(-c3ccc(OC)cc3)cc2)cc1 (repeat unit) | 77.00 |
| *CC(*)(C)C(=O)OCCCCOc1ccc(OC(=O)c2ccc(OCCCCCC)cc2)cc1 (repeat unit) | 34.00 |
| *CC(*)(C)C(=O)OCCCCl (repeat unit) | 50.00 |
| *CC(*)(C)C(=O)OCCCN(C)c1ccc(N(C)C)cc1 (repeat unit) | 12.50 |
| *CC(*)(C)C(=O)OCCCN(CCO)c1ccc(/N=N/c2ccc([N+](=O)[O-])cc2)cc1 (repeat unit) | 131.00 |
| *CC(*)(C)C(=O)OCCCOc1ccc(-c2ccc(C#N)cc2)cc1 (repeat unit) | 97.00 |
| *CC(*)(C)C(=O)OCCC[Si](OC)(OC)OC (repeat unit) | 9.00 |
| *CC(*)(C)C(=O)OCCN(C)c1ccc(/N=N/c2ccc(S(=O)(=O)Nc3cc(C)on3)cc2)cc1 (repeat unit) | 123.00 |
| *CC(*)(C)C(=O)OCCN(C)c1ccc(N(C)C)cc1 (repeat unit) | 43.00 |
| *CC(*)(C)C(=O)OCCN(CC)CC (repeat unit) | 26.00 |
| *CC(*)(C)C(=O)OCCN(CC)c1ccc(/N=N/c2ccc(C#N)cc2)cc1 (repeat unit) | 119.00 |
| *CC(*)(C)C(=O)OCCN(CC)c1ccc(/N=N/c2ccc([N+](=O)[O-])c3ccccc23)cc1 (repeat unit) | 116.00 |
| *CC(*)(C)C(=O)OCCN(CCCC)c1ccc(/N=N/c2ccc(S(=O)(=O)Nc3cc(C)on3)cc2)cc1 (repeat unit) | 105.00 |

| SMILES | glass transition temperature [°C] |
| --- | --- |
| *CC(*)(C)C(=O)OCCOCC (repeat unit) | -16.00 |
| *CC(*)(C)C(=O)OCCOCCOCCOCCOCCOCCOCCOCCOC (repeat unit) | -58.00 |
| *CC(*)(C)C(=O)OCCOCC[N+](CC)(CC)CCCCS(=O)(=O)O (repeat unit) | 95.00 |
| *CC(*)(C)C(=O)OCCOc1ccc(/N=N/c2ccc(C#N)cc2)cc1 (repeat unit) | 109.00 |
| *CC(*)(C)C(=O)OCC[N+](C)(C)CCCCS(=O)(=O)O (repeat unit) | 261.00 |
| *CC(*)(C)C(=O)OCCc1ccc(/N=N/c2ccc(OC(F)(F)F)cc2)cc1 (repeat unit) | 209.50 |
| *CC(*)(C)C(=O)OCc1ccc(/C=C/C(=O)C2c3ccccc3C(=O)c3ccccc32)cc1 (repeat unit) | 163.00 |
| *CC(*)(C)C(=O)OCc1ccc(Cl)c(Cl)c1 (repeat unit) | 34.5 |
| *CC(*)(C)C(=O)OCc1ccc(OCCOCCOCC)c(OCCOCCOCC)c1 (repeat unit) | -33.00 |
| *CC(*)(C)C(=O)OCc1ccc(OCCOCCOCCOCC)c(OCCOCCOCCOCC)c1 (repeat unit) | -92.00 |
| *CC(*)(C)C(=O)OCc1ccc2c(c1)OCCOCCOCCOCCO2 (repeat unit) | 38.00 |
| *CC(*)(C)C(=O)OCc1ccc2c(c1)c1ccccc1n2CC (repeat unit) | 136.00 |
| *CC(*)(C)C(=O)OCc1ccc2c(c1)c1ccccc1n2CCCCCCCCCCCC (repeat unit) | 25.00 |
| *CC(*)(C)C(=O)OCc1ccc2c(c1)c1ccccc1n2CCCCCCCCCCCCCCCC (repeat unit) | 23.00 |
| *CC(*)(C)C(=O)OCc1cccc(Cl)c1Cl (repeat unit) | 42.60 |
| *CC(*)(C)C(=O)OCc1cccs1 (repeat unit) | 66.00 |
| *CC(*)(C)C(=O)Oc1c(C)cccc1C (repeat unit) | 167.00 |
| *CC(*)(C)C(=O)Oc1ccc(-c2nnc(-c3ccc(C(C)(C)C)cc3)o2)cc1 (repeat unit) | 156.00 |
| *CC(*)(C)C(=O)Oc1ccc(/N=N/c2ccc(OC)cc2)cc1 (repeat unit) | 120.00 |
| *CC(*)(C)C(=O)Oc1ccc(/N=N/c2ccc([N+](=O)[O-])cc2)cc1 (repeat unit) | 145.00 |
| *CC(*)(C)C(=O)Oc1ccc(C(=O)/C=C/c2ccc(OC)c(OC)c2)cc1 (repeat unit) | 137.00 |
| *CC(*)(C)C(=O)Oc1ccc(C(=O)Oc2ccc(C(=O)c3ccccc3)cc2)cc1 (repeat unit) | 72.00 |
| *CC(*)(C)C(=O)Oc1ccc(C(=O)c2ccccc2)c(O)c1 (repeat unit) | 270.00 |
| *CC(*)(C)C(=O)Oc1ccc(C(=O)c2ccccc2)cc1 (repeat unit) | 118.00 |
| *CC(*)(C)C(=O)Oc1ccc(CC#N)cc1 (repeat unit) | 131.00 |
| *CC(*)(C)C(=O)Oc1ccc([N+](=O)[O-])c(C)c1 (repeat unit) | 101.00 |
| *CC(*)(C)C(=O)Oc1ccc2c(c1)CCC2 (repeat unit) | 113.50 |

| SMILES | glass transition temperature [°C] |
| --- | --- |
| *CC(*)(C)c1ccc2ccccc2c1 (repeat unit) | 208.00 |
| *CC(*)(CC(=O)OC(C)C)C(=O)OC(C)C (repeat unit) | 100.00 |
| *CC(*)(CC(=O)OC)C(=O)OC (repeat unit) | 95.00 |
| *CC(*)(CC(=O)OC)C(=O)OC12CC3CC(CC(C3)C1)C2 (repeat unit) | 197.00 |
| *CC(*)(CC(=O)OC1CCC1)C(=O)OC1CCC1 (repeat unit) | 60.00 |
| *CC(*)(CC(=O)OCC1CCCCC1)C(=O)OCC1CCCCC1 (repeat unit) | 83.00 |
| *CC(*)(CC(=O)OCCC1CCCCC1)C(=O)OCCC1CCCCC1 (repeat unit) | 48.00 |
| *CC(*)(CC(=O)OCCCC)C(=O)OCCCC (repeat unit) | 24.00 |
| *CC(*)(CC(=O)OCCCC1CCCCC1)C(=O)OCCCC1CCCCC1 (repeat unit) | 7.00 |
| *CC(*)(CC(=O)OCCCCCC)C(=O)OCCCCCC (repeat unit) | -7.00 |
| *CC(*)(CC(=O)OCCCc1ccccc1)C(=O)OCCCc1ccccc1 (repeat unit) | -8.00 |
| *CC(*)(CC(=O)OCCCl)C(=O)OCCCl (repeat unit) | 43.00 |
| *CC(*)(CC(=O)OCCOCCOC)C(=O)OCCOCCOC (repeat unit) | -40.50 |
| *CC(*)(CC(=O)OCc1ccccc1)C(=O)OCc1ccccc1 (repeat unit) | 55.00 |
| *CC(*)(CC(=O)Oc1ccc(OCCC)cc1)C(=O)Oc1ccc(OCCC)cc1 (repeat unit) | 94.50 |
| *CC(*)(CC)C(=O)OCC (repeat unit) | 27.00 |
| *CC(*)(CCC)C(=O)OC (repeat unit) | 83.50 |
| *CC(*)(CCCCCCCC)C(=O)OC (repeat unit) | 34.00 |
| *CC(*)(Cl)C(=O)OCCC(F)(F)C(F)(F)C(F)(F)C(F)(F)C(F)(F)C(F)(F)C(F)(F)C(F)(F)F (repeat unit) | 61.00 |
| *CC(*)(Cl)C(=O)OCCCC (repeat unit) | 42.00 |
| *CC(*)(F)C(=O)OC(C(F)(F)F)C(F)(F)F (repeat unit) | 102.00 |
| *N=P(Cl)(N=P(/N=S(/*)Oc1cccc(-c2ccccc2)c1)(Oc1cccc(-c2ccccc2)c1)Oc1cccc(-c2ccccc2)c1)Oc1cccc(-c2ccccc2)c1 (repeat unit) | 32.00 |
| *Oc1ccc(-c2ccc(Oc3ccc(/C(=N/c4ccc(/N=C(\c5ccccc5)c5ccc(*)cc5)cc4)c4ccccc4)cc3)cc2)cc1 (repeat unit) | 195.00 |
| *Oc1ccc(/C(=N/c2ccc(/N=C(\c3ccccc3)c3ccc(Oc4ccc(C(c5ccccc5)(c5ccccc5)c5ccc(*)cc5)cc4)cc3)cc2)c2ccccc2)cc1 (repeat unit) | 198.00 |
| *Oc1ccc(/C(C)=N/c2ccc(/N=C(\C)c3ccc(Oc4ccc(C(c5ccccc5)(c5ccccc5)c5ccc(*)cc5)cc4)cc3)cc2)cc1 (repeat unit) | 178.00 |
| *Oc1ccc2ccc(Oc3ccc(/C(=N/c4ccc(/N=C(\c5ccccc5)c5ccc(*)cc5)cc4)c4ccccc4)cc3)cc2c1 (repeat unit) | 171.00 |
